Experimental data: patent publication US20230286973A1, “PROTEIN SECRETION INHIBITORS” (KEZAR LIFE SCIENCES, priority 2020, published 2023)

Columns and labels:
[1] = Liver Microsome Stability Assay (human); conditions: human liver microsomes, with NADPH, 1.0 uM compound
Protocol: (§1) Stability of a compound was assessed in the presence of liver microsomes from various sources—mouse, rat, monkey and human liver microsomes. 1.0 uM compound, 0.4% DMSO in 0.1 M Potassium Phosphate with 1.0 mg/mL liver microsomes, were incubated at 37° C. with or without 1 mM NADPH. The samples were quenched at 0, and 30 minutes.

[2] = test system: IL-2-FL/Gaussia Luciferase; experiment: Dox Induced IL2-FL-Gluc Assay; format: cell-based; conditions: for IC50: 24 hr Dox induction, 293FRT/TO cells, read-out: 24 hr Dox Inducible IL2FLGluc 293FRT/TO: Mean IC50; for 24 hr Dox Inducible IL2FLGluc 293FRT/TO: IL2/PD1: ratio of IL2FLGluc IC50 to PD1ssGluc IC50
Procedure, shortened: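 Reporter is Gaussia luciferase fused to the 3′ end of full-length IL-2 (aa 1-153), expressed from a doxycycline-inducible T-REx construct in stably selected Flp-In 293 cells. Compounds were co-added with doxycycline and incubated at 37° C, 5% CO2.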

[3] = Liver Microsome Stability Assay (mouse); conditions: mouse liver microsomes, with NADPH, 1.0 uM compound
Protocol: as §1

[4] = test system: HER3-ss+4aa/Gaussia Luciferase; experiment: Dox-Induced Her3-ss-Gluc Assay; format: cell-based; conditions: 24 hr Dox induction; 293FRT/TO cells; read-out: 24 hr Dox Inducible Her3(ss + 4)Gluc 293FRT/TO: Mean IC50
Procedure, shortened: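 Expression of a Gaussia luciferase reporter carrying the HER3 signal sequence plus 4 amino acids is induced by doxycycline in stably transfected Flp-In 293 T-REx cells. Compounds are added with doxycycline at 37° C., 5% CO2. Undefined stereocentres denote stereoisomer mixtures.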

[5] = test system: PD1-ss+10aa/Gaussia Luciferase; experiment: Dox-Induced PD1-ss-Gluc Assay; format: cell-based; conditions: 24 hr Dox induction; 293FRT/TO cells; read-out: 24 hr Dox Inducible PD1ssGluc 293FRT/TO: Mean IC50
Procedure, shortened: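 Flp-In 293 T-REx cells stably carrying a doxycycline-inducible Gaussia luciferase fused to the PD1 signal sequence plus 10 aa were plated the day before. Compound dilutions in DMSO/media containing doxycycline were then added and incubated at 37 °C, 5% CO2. Data for undefined stereochemistry refer to stereoisomer mixtures.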

[6] = Liver Microsome Stability Assay (monkey); conditions: monkey liver microsomes, with NADPH, 1.0 uM compound
Protocol: as §1

[7] = test system: multiple myeloma cell line NCI-H929; experiment: H929 Cell Viability Assay; format: cell-based, human; conditions: Homo sapiens, NCI-H929, 48 h, NCI-H929 cells, Celltiter-Glo
Procedure, shortened: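 Plate the myeloma cells in RPMI 1640 with 10% FBS, add serially diluted compound, incubate for 48 hours at 37° C, then add CellTiter-Glo and read luciferase signal.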

[8] = test system: multiple myeloma cell line U266B1; experiment: U266 Cell Viability Assay; format: cell-based, human; conditions: Homo sapiens, U-266, 48 h, U266B1 cells, Celltiter-Glo
Procedure, shortened: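 48 h treatment, 37° C./5% CO2, RPMI 1640 + 10% FBS; viability by CellTiter-Glo luminescence.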

[9] = Liver Microsome Stability Assay (rat); conditions: rat liver microsomes, with NADPH, 1.0 uM compound
Protocol: as §1

[10] = test system: TNFα-FL/Gaussia Luciferase; experiment: Dox Induced TNFα-FL-Gluc Assay; format: cell-based; conditions: for IC50: 24 hr Dox induction, 293FRT/TO cells, read-out: 24 hr Dox Inducible TNFaFLGluc 293FRT/TO: Mean IC50; for 24 hr Dox Inducible TNFaFLGluc 293FRT/TO: TNF/PD1: ratio of TNFaFLGluc IC50 to PD1ssGluc IC50
Procedure, shortened: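 Cells are seeded one day ahead, then treated with compound plus doxycycline at 37 °C, 5% CO2. The stable Flp-In 293 T-REx line expresses full-length TNFα (amino acids 1-233) with Gaussia luciferase fused to its 3′ end, inducibly via T-REx.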

| Structure (SMILES) | Liver Microsome Stability (Multiple Species): Human - % Remaining after 30 min w/NADPH [1] [%] | IC50 [2] [nM] | Liver Microsome Stability (Multiple Species): Mouse - % Remaining after 30 min w/NADPH [3] [%] | IC50 [4] [nM] | IC50 [5] [nM] | Liver Microsome Stability (Multiple Species): Monkey - % Remaining after 30 min w/NADPH [6] [%] | EC50 [7] [nM] | EC50 [8] [nM] | Liver Microsome Stability (Multiple Species): Rat - % Remaining after 30 min w/NADPH [9] [%] | IC50 [10] [nM] | 24 hr Dox Inducible IL2FLGluc 293FRT/TO: IL2/PD1 [2] | 24 hr Dox Inducible TNFaFLGluc 293FRT/TO: TNF/PD1 [10] |
| --- | --- | --- | --- | --- | --- | --- | --- | --- | --- | --- | --- | --- |
| CC(=O)N1CCC(Oc2ccc(N3CCC[C@@H]3c3csc(NC(=O)c4cccn4Cc4ccnc(F)c4)n3)c(Cl)c2)CC1 [Compound A143, (R)-N-(4-(1-(4-((1-acetylpiperidin-4-yl)oxy)-2-chlorophenyl)pyrrolidin-2-yl)thiazol-2-yl)-1-((2-fluoropyridin-4-yl)methyl)-1H-pyrrole-2-carboxamide] | 0.16 | 31.2 | 0.06 | 64.8 | 51.9 | 0.01 | 1010 | 11900 | 6.14 | 209 | 0.6 | 4.03 |
| CC(=O)N1CCC(Nc2ccc(N3CCC[C@@H]3c3csc(NC(=O)c4cccn4Cc4ccnc(F)c4)n3)cc2)CC1 [Compound A147, (R)-N-(4-(1-(4-((1-acetylpiperidin-4-yl)amino)phenyl)pyrrolidin-2-yl)thiazol-2-yl)-1-((2-fluoropyridin-4-yl)methyl)-1H-pyrrole-2-carboxamide] | 8.6 | 109 | 5.61 | 106 | 71.9 | 0.94 | 469 | 3480 | 2.95 | 316 | 1.5 | 4.4 |
| CN(C)S(=O)(=O)N1CC(Oc2ccc(N3CCC[C@@H]3c3csc(NC(=O)c4cccn4Cc4ccnc(F)c4)n3)cc2)C1 [Compound A148, (R)-N-(4-(1-(4-((1-(N,N-dimethylsulfamoyl)azetidin-3-yl)oxy)phenyl)pyrrolidin-2-yl)thiazol-2-yl)-1-((2-fluoropyridin-4-yl)methyl)-1H-pyrrole-2-carboxamide] | 7.55 | 87.2 | 4.79 | 73 | 45.9 | 0.84 | 1660 | 11100 | 28.3 | 579 | 1.9 | 12.6 |
| N#Cc1cc(C(=O)Nc2nc([C@H]3CCCN3c3ccccc3)cs2)n(Cc2ccnc(F)c2)c1 [Compound A149, (R)-4-cyano-1-((2-fluoropyridin-4-yl)methyl)-N-(4-(1-phenylpyrrolidin-2-yl)thiazol-2-yl)-1H-pyrrole-2-carboxamide] | 25.9 | 152 | 46 | 126 | 68.1 | 9.8 | 2540 | 4390 | 17.1 | 1010 | 2.2 | 14.9 |
| NS(=O)(=O)N1CC(Oc2ccc(N3CCC[C@@H]3c3csc(NC(=O)c4cccn4Cc4ccnc(F)c4)n3)cc2)C1 [Compound A150, (R)-1-((2-fluoropyridin-4-yl)methyl)-N-(4-(1-(4-((1-sulfamoylazetidin-3-yl)oxy)phenyl)pyrrolidin-2-yl)thiazol-2-yl)-1H-pyrrole-2-carboxamide] | 17.4 | 130 | 36.3 | 82.1 | 49.2 | 0.71 | 3270 | > 25000 | 51.6 | 758 | 2.6 | 15.4 |

The next lines start with results.

| Liver Microsome Stability (Multiple Species): Human - % Remaining after 30 min w/NADPH [1] [%] | IC50 [2] [nM] | Liver Microsome Stability (Multiple Species): Mouse - % Remaining after 30 min w/NADPH [3] [%] | IC50 [4] [nM] | IC50 [5] [nM] | Liver Microsome Stability (Multiple Species): Monkey - % Remaining after 30 min w/NADPH [6] [%] | EC50 [7] [nM] | EC50 [8] [nM] | Liver Microsome Stability (Multiple Species): Rat - % Remaining after 30 min w/NADPH [9] [%] | IC50 [10] [nM] | Structure (SMILES) | 24 hr Dox Inducible IL2FLGluc 293FRT/TO: IL2/PD1 [2] | 24 hr Dox Inducible TNFaFLGluc 293FRT/TO: TNF/PD1 [10] |
| --- | --- | --- | --- | --- | --- | --- | --- | --- | --- | --- | --- | --- |
| 20.9 | 963 | 60.5 | 660 | 323 | 29.6 | 16300 | > 25000 | 59.4 | 6870 | O=C(Nc1nc([C@@H]2CCCN2c2ccc(C(F)(F)F)cc2)cs1)c1cccn1Cc1ccnc(F)c1 [Compound A142, (S)-1-((2-fluoropyridin-4-yl)methyl)-N-(4-(1-(4-(trifluoromethyl)phenyl)pyrrolidin-2-yl)thiazol-2-yl)-1H-pyrrole-2-carboxamide] | 3 | 21.3 |
| 36.4 | 1.33 | 20.2 | 0.81 | 0.36 | 10.7 | 15.9 | > 25000 | 34 | 5.9 | COC(=O)Nc1ccc(N2CCC[C@@H]2c2csc(NC(=O)c3cccn3Cc3ccnc(F)c3)n2)cc1 [Compound A144, methyl (R)-(4-(2-(2-(1-((2-fluoropyridin-4-yl)methyl)-1H-pyrrole-2-carboxamido)thiazol-4-yl)pyrrolidin-1-yl)phenyl)carbamate] | 3.7 | 16.3 |
| 41.5 | 1.11 | 25.1 | 0.83 | 0.31 | 18 | 13.5 | > 25000 | 46 | 7.51 | CCOC(=O)Nc1ccc(N2CCC[C@@H]2c2csc(NC(=O)c3cccn3Cc3ccnc(F)c3)n2)cc1 [Compound A145, ethyl (R)-(4-(2-(2-(1-((2-fluoropyridin-4-yl)methyl)-1H-pyrrole-2-carboxamido)thiazol-4-yl)pyrrolidin-1-yl)phenyl)carbamate] | 3.6 | 24 |
| 49.5 | 2.56 | 34.8 | 2.47 | 0.97 | 21.6 | 39.3 | > 25000 | 54.1 | 20.6 | CC(C)OC(=O)Nc1ccc(N2CCC[C@@H]2c2csc(NC(=O)c3cccn3Cc3ccnc(F)c3)n2)cc1 [Compound A146, isopropyl (R)-(4-(2-(2-(1-((2-fluoropyridin-4-yl)methyl)-1H-pyrrole-2-carboxamido)thiazol-4-yl)pyrrolidin-1-yl)phenyl)carbamate] | 2.6 | 21.1 |
